Laboratory results as given in US12447163B2, “Liposomal formulations of Bcl inhibitors” (Jazz Pharmaceuticals Therapeutics, Inc., priority 2021, dated 2025).

Tested on: platelet count
Test: Platelet count (thrombocytopenia / platelet protection) after administration of liposomal formulations or free drug
Type: in vivo, Female B6D2F1/J mice
Conditions: liposomal formulations at various doses or free drug, FIG. 7F
Method: Female B6D2F1/J mice were purchased from Jackson Laboratory and acclimated 7 days prior to study start. Mice were caged in autoclaved Allentown ventilated caging at a capacity of 3 animals/cage during the course of the experiment. Cages were changed bi-weekly. Environmental enrichment that was supplied for cages were Nestlets from Ancare, transparent tinted polycarbonate Mouse Igloos from Bio-Serv on Envigo 7097¼″ corn cob bedding. All enrichment was added to the cage prior to the cages being autoclaved. Mice were fed Envigo Teklad Global Rodent Diet 2018. The rodent food was kept in the hoppers of the wire lids and was changed bi-weekly. Reverse osmosis water was supplied through Avidity Science automatic watering valves at a flow rate of 25-50 ml/min. Environmental control of the lights and monitoring of temperature, humidity and airflow was done by WatchDog. Light cycles in the animal holding rooms was set for 12 hours on and 12 hours off. Temperature, humidity and airflow were maintained and controlled by BCCRC facilities.
Mice were injected with the required volume to administer the prescribed dose (10 mg/kg) to the animals based on individual mouse weights using a 28 G needle. The injection volume was 200 μL/20 g mouse. The mice were briefly (less than 30 sec.) restrained during i.v. injections. […]

CN(C)CC[C@H](CSc1ccccc1)Nc1ccc(S(=O)(=O)NC(=O)c2ccc(N3CCN(Cc4ccccc4-c4ccc(Cl)cc4)CC3)cc2)cc1[N+](=O)[O-] [Compound 7]
tolerability (platelet count): well tolerated at the tested doses
